Values joined by “and” are separate entries in the source; they are usually repeats but may differ in a detail not shown here. Equal values may be shown once.
How the values were obtained:
[1] = tested on: MCF-7 breast carcinoma cell line; experiment: MTT cytotoxic activity against MCF-7 breast carcinoma cell line; assay type: cell-based; settings: Homo sapiens, MCF7; MTT assay, MCF-7 cells, 24 h incubation
Protocol: Cytotoxic activity of the synthesized acrylate derivatives 5a–6i was evaluated against the MCF-7 breast carcinoma cell line using the MTT colorimetric assay. CA-4 was included as a positive control. The results were summarized as IC50 values in Table 1.
Antiproliferative activity of the constructed acrylate molecules 5a–6i was determined on MCF-7 cell line as reported previously.[38] See ESI Appendix A. ^† […]
(§1) S4.2.1. Cytotoxic activity evaluation
To measure the cytotoxic actvity of the synthesized acrylate derivatives 5a,b and 6a-i in breast cancer (MCF-7) cell line. Cell viability assay was assessed using MTT assay method. Cells at density of 1 x 104 were seeded in a 96-well plate at 37 °C for 24 h under 5% CO2. After incubation, the cells were treated with different concentrations of the test acrylate derivatives 5a-6i and incubated for 24 h, then 20 µl of MTT solution at 5 mg/mL was applied and incubated for 4 h at 37 °C. Dimethyl sulphoxide (DMSO) in volume of 100 µl was added to each well to dissolve the purple formazan that had formed. The color intensity of the formazan product, which represents the growth condition of the cells, is quantified by using an ELISA plate reader (EXL 800, USA) at 570 nm absorbance. The experimental conditions were carried out with at least three replicates, and the experiments were repeated at least three times. […]

p53 = experiment: qRT-PCR gene expression of p53 in MCF-7 cells; assay type: cell-based; settings: 2.57 μM, 48 h
Description: (§2) p53, Bax and Bcl-2 play a key role in controlling intrinsic mitochondrial cellular death.[36] […] During the apoptotic process, these mediators have opposing effects. p53 and Bax have proapoptotic impacts, while Bcl-2 has anti-apoptotic effects. […] This assay utilized the quantitative real time reverse transcriptase PCR (qRT-PCR) assay. […] On the other hand, compound 6e decreased the level of anti-apoptotic gene Bcl-2 level by 0.38-fold less than untreated cells.
(§3) The MCF-7 cell line was used for measurement of the expression levels of Apoptotic markers. […]
(§4) S4.2.5. qRT-PCR measurements of p53, Bax and Bcl2 for compound 6e
(§5) Real-time PCR for p53, BAX and Bcl-2 genes expression was done using commercial Qiagen RNA extraction/ BioRad SYBER green PCR master mix according manufacturer's instructions. Briefly, 2 µl of cDNA template, 10 pMol of each forward and reverse primer, 10 µl of 2X Master Mix and to 20 µl total reaction mixture volume by nuclease free water and then was introduced to thermal cycler instrument (Thermo Scientific, USA). The cycling parameters for the PCR amplification were achieved by initial denaturation at 95 °C for 3 minutes followed by 40 cycles of 94 °C for 15 seconds and annealing/extension step at 60 °C for 1 min. Relative quantification of target genes was run on Rotor-Gene 6000 Series Software 1.7 (Build […]
(§6) Table 1: The primer sequences for Real Time PCR assay

MCF-10A = experiment: MTT cytotoxic activity against MCF-10A cells; assay type: cell-based; settings: Homo sapiens, MTT assay
Bax/Bcl-2 = Bax/Bcl-2 ratio from qRT-PCR in MCF-7 cells; assay type: cell-based; settings: 2.57 μM, 48 h
Description: as §2, §3, §4, §5, §6

β-tubulin = biological target: T1, β-tubulin (Homo sapiens, UniProt P07437); experiment: β-tubulin polymerization inhibition in MCF-7 cells (Human Beta-tubulin SimpleStep ELISA kit); assay type: cell-based; settings: 48 h; for β-tubulin polymerization inhibition percentage: at IC50 concentration
T1 construct: utilizing MCF-7 breast carcinoma cells; endogenous in cells; host or cells: MCF-7 breast carcinoma cells
T1 sequence (P07437 whole entry): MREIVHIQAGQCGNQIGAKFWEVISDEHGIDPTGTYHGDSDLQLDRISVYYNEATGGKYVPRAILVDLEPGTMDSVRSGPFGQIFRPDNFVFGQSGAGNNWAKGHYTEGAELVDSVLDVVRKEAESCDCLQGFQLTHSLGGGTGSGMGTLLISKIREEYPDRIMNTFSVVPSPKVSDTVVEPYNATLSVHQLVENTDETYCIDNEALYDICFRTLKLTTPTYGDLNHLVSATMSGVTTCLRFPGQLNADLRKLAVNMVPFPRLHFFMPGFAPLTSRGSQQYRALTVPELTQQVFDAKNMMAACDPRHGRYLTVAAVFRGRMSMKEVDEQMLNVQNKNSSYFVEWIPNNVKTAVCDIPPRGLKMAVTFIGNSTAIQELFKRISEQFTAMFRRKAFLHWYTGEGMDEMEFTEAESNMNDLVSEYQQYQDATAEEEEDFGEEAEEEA
T1 sequence (P68363 whole entry partner): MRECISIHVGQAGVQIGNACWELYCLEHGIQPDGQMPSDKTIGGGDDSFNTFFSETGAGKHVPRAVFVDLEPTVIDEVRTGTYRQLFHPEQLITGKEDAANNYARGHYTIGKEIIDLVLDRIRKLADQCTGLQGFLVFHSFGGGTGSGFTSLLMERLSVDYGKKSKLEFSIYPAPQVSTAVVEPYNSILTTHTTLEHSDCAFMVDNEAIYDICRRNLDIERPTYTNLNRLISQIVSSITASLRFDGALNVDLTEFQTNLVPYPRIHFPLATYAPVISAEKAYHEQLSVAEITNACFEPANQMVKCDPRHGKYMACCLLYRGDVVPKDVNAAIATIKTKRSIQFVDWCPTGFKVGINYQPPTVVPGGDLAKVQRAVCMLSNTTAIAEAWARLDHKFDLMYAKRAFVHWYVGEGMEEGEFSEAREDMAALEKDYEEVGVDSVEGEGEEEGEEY
Description: The disruption of the cellular microtubule structure and, more importantly, microtubule function that result from inhibiting β-tubulin polymerization leads to the triggering of cellular apoptosis.[30,31] Inhibition of tubulin polymerization has been identified as a possible therapeutic target for the creation of new cancer therapies.[32]
as §1
(§7) To measure the cytotoxic actvity of the synthesized acrylate derivatives 5a,b and 6a-i in breast cancer (MCF-7) cell line. Cell viability assay was assessed using MTT assay method. Cells at density of 1 x 104 were seeded in a 96-well plate at 37 °C for 24 h under 5% CO2. After incubation, the cells were treated with different concentrations […]
(§8) solution at 5 mg/mL was applied and incubated for 4 h at 37 °C. Dimethyl sulphoxide (DMSO) in volume of 100 µl was added to each well to dissolve the purple formazan that had formed. The color intensity of the formazan product, which represents the growth condition of the cells, is quantified by using an ELISA plate reader (EXL 800, USA) at 570 nm absorbance. The experimental conditions were carried out with at least three replicates, and the experiments were repeated at least three times.
(§9) S4.2.2. Tubulin polymerization Assay

Bcl-2 = experiment: qRT-PCR gene expression of Bcl-2 in MCF-7 cells; assay type: cell-based; settings: 2.57 μM, 48 h
Description: as §2, §3, §4, §5, §6

[2] = tested on: MCF-7 breast carcinoma cells; experiment: Annexin V-FITC/PI apoptosis assay in MCF-7 cells; assay type: cell-based; settings: 2.57 μM, 48 h
Protocol: as §1, §7, §8
S4.2.2. Tubulin polymerization Assay […]
to manufacturer’s instructions using # abcam Human Beta-tubulin simplestep ELISA […]
(§10) S4.2.3. Cell cycle analysis of compound 6e
Cell cycle analysis in MCF-7 cells was investigated using fluorescent Annexin V-FITC/ PI detection kit (BioVision EZCellTM Cell Cycle Analysis Kit Catalog #K920) by flow cytometry assay. MCF-7 cells at a density of 2 × 10^5 per well were harvested and washed twice in PBS. […]
immediately analyzed using FACS Calibur flow cytometer (Becton and Dickinson, […]

Bax = experiment: qRT-PCR gene expression of Bax in MCF-7 cells; assay type: cell-based; settings: 2.57 μM, 48 h
Description: as §2, §3, §4, §5, §6

[3] = tested on: MCF-7 breast carcinoma cells; experiment: Flow cytometric cell cycle analysis of MCF-7 cells; assay type: cell-based; settings: 2.57 μM, 48 h
Protocol: The MCF-7 cell line was used for cell cycle analysis. Assay was carried out as reported previously.[39] See ESI Appendix A. ^† […]
as §1
To measure the cytotoxic actvity of the synthesized acrylate derivatives 5a,b and 6a-i in breast cancer (MCF-7) cell line. Cell viability assay was assessed using MTT assay method. Cells at density of 1 x 104 were seeded in a 96-well plate at 37 °C for 24 h under 5% CO2. After incubation, the cells were treated with different concentrations of the test acrylate derivatives 5a-6i and incubated for 24 h, then 20 µl of MTT solution at 5 mg/mL was applied and incubated for 4 h at 37 °C. Dimethyl sulphoxide (DMSO) in volume of 100 µl was added to each well to dissolve the purple formazan that had formed. The color intensity of the formazan product, which represents the growth condition of the cells, is quantified by using an ELISA plate reader (EXL 800, USA) at 570 nm absorbance. The experimental conditions were carried out with at least three replicates, and the experiments were repeated at least three times.
as §9
Compound 6e and CA-4 were evaluated for their tubulin inhibitory activity according to manufacturer’s instructions using # abcam Human Beta-tubulin simplestep ELISA […]
as §10
Cell cycle analysis in MCF-7 cells was investigated using fluorescent Annexin V-FITC/ PI detection kit (BioVision EZCellTM Cell Cycle Analysis Kit Catalog #K920) by flow cytometry assay. MCF-7 cells at a density of 2 × 10^5 per well were harvested and washed twice in PBS. After that, the cells were incubated at 37 °C and 5% CO2.
The medium was incubated with the tested compound 6e at ita IC50 (µM) for 48 h, washed twice in PBS, fixed with 70% ethanol, rinsed again with PBS. Afterward, medium was stained with DNA fluorochrome PI for 15 min at 37 °C. The samples were immediately analyzed using Facs Calibur flow cytometer (Becton and Dickinson, Heidelberg, Germany).
S4.2.4. Apoptosis assay for compound 6e […]

Compound | melting point [°C] | IC50 [1] [µM] | other results
COc1ccc(C(=O)N/C(=C\c2ccc(OC)c(OC)c2OC)C(=O)O)cc1OC [5a, (Z)-2-(3,4-Dimethoxybenzamido)-3-(2,3,4-trimethoxyphenyl)acrylic acid] | 201 to 203 | 9.31 ± 0.35 | 
COc1cc(C(=O)N/C(=C\c2ccc(OC)c(OC)c2OC)C(=O)O)cc(OC)c1OC [5b, (Z)-2-(3,4,5-Trimethoxybenzamido)-3-(2,3,4-trimethoxyphenyl)acrylic acid] | 217 to 219 | 5.12 ± 0.32 | 
COC(=O)/C(=C/c1ccc(OC)c(OC)c1OC)NC(=O)c1ccc(OC)c(OC)c1 [6a, (Z)-Methyl 2-(3,4-dimethoxybenzamido)-3-(2,3,4-trimethoxyphenyl)acrylate] | 177 to 179 | 6.74 ± 0.78 | 
CCOC(=O)/C(=C/c1ccc(OC)c(OC)c1OC)NC(=O)c1ccc(OC)c(OC)c1 [6b, (Z)-Ethyl 2-(3,4-dimethoxybenzamido)-3-(2,3,4-trimethoxyphenyl)acrylate] | 154 to 156 | 17.1 ± 0.49 | 
CCCOC(=O)/C(=C/c1ccc(OC)c(OC)c1OC)NC(=O)c1ccc(OC)c(OC)c1 [6c, (Z)-Propyl 2-(3,4-dimethoxybenzamido)-3-(2,3,4-trimethoxyphenyl)acrylate] | 119 to 121 | 20.3 ± 0.44 | 
CCCCOC(=O)/C(=C/c1ccc(OC)c(OC)c1OC)NC(=O)c1ccc(OC)c(OC)c1 [6d, (Z)-Butyl 2-(3,4-dimethoxybenzamido)-3-(2,3,4-trimethoxyphenyl)acrylate] | 132 to 134 | 42.1 ± 0.96 | 
COC(=O)/C(=C/c1ccc(OC)c(OC)c1OC)NC(=O)c1cc(OC)c(OC)c(OC)c1 [6e, (Z)-Methyl 2-(3,4,5-trimethoxybenzamido)-3-(2,3,4-trimethoxyphenyl)acrylate] |  | 2.57 ± 0.16 | p53 gene expression level, fold relative to untreated control cells (p53): 6.18 fold; IC50 (MCF-10A): 19.1 ± 0.31 µM; increase of the ratio of Bax/Bcl-2 compared to untreated cells (Bax/Bcl-2): 10.5 fold; fold decrease in the level of β-tubulin polymerization compared to untreated control cells (β-tubulin; 2.57 μM): 5.73 fold; β-tubulin polymerization inhibition percentage (β-tubulin): 81.16%; Bcl-2 gene expression level, fold relative to untreated cells (decrease) (Bcl-2): 0.38 fold; late stage apoptotic cells ([2]; control 0.24%): 23.28%; early stage apoptotic cells ([2]; control 0.38%): 14.55%; Bax gene expression level, fold relative to untreated control cells (Bax): 3.99 fold; cell population in G2/M phase ([3]; control 8.20%): 29.96%; cell population in S phase ([3]; control 26.88%): 22.06%; cell population in G1 phase ([3]; control 54.92%): 47.98%
CCOC(=O)/C(=C/c1ccc(OC)c(OC)c1OC)NC(=O)c1cc(OC)c(OC)c(OC)c1 [6f, (Z)-Ethyl 2-(3,4,5-trimethoxybenzamido)-3-(2,3,4-trimethoxyphenyl)acrylate] | 127 to 129 | 3.26 ± 0.21 | 
CCCOC(=O)/C(=C/c1ccc(OC)c(OC)c1OC)NC(=O)c1cc(OC)c(OC)c(OC)c1 [6g, (Z)-Propyl 2-(3,4,5-trimethoxybenzamido)-3-(2,3,4-trimethoxyphenyl)acrylate] | 111 to 113 | 11.3 ± 0.75 | 
COc1cc(C(=O)N/C(=C\c2ccc(OC)c(OC)c2OC)C(=O)OC(C)C)cc(OC)c1OC [6h, (Z)-Isopropyl 2-(3,4,5-trimethoxybenzamido)-3-(2,3,4-trimethoxyphenyl)acrylate] | 105 to 107 | 7.08 ± 0.29 | 
CCCCOC(=O)C(=Cc1ccc(OC)c(OC)c1OC)NC(=O)c1cc(OC)c(OC)c(OC)c1 [6i, Butyl 2-(3,4,5-trimethoxybenzamido)-3-(2,3,4-trimethoxyphenyl)acrylate] | 118 to 120 | 33 ± 1.03 | 
COc1ccc(/C=C\c2cc(OC)c(OC)c(OC)c2)cc1O [CA-4, combretastatin A-4, reference compound] |  | 1.25 ± 0.08 | IC50 (MCF-10A): 13.2 ± 0.19 µM; β-tubulin polymerization inhibition percentage (β-tubulin): 89.17% and 82.82%
